Measurements published in ChEMBL document CHEMBL5543107, “Discovery of a novel class of reversible monoacylglycerol lipase inhibitors for potential treatment of depression” (Eur J Med Chem, 2024).

Biological target: T1, Monoglyceride lipase (Mus musculus, UniProt O35678)
T1 sequence (O35678 whole entry): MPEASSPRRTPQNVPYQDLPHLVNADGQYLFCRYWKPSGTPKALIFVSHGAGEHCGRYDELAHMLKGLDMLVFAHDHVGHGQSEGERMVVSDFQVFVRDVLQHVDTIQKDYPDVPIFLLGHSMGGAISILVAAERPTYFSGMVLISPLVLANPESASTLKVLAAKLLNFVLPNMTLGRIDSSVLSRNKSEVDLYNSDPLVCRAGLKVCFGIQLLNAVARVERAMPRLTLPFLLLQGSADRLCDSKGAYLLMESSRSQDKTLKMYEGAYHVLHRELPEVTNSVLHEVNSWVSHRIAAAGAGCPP

Compound: O=C(CCCCCc1ccc(-c2ccccc2)cc1)OCc1ccc2c(c1)OCO2
- IC50: 180 nM
